# Source: US20240025849A1 (MAX DELBRÜCK-CENTRUM FÜR MOLEKULARE MEDIZIN IN DER …, priority 2020, published 2024)
# Entries after “also recorded” stand apart in the source; their conditions may differ.
# Tests used:
# eNOS = target: T1, eNOS (Homo sapiens, UniProt P29474); assay: NOS enzyme activity assay (Eurofins), eNOS; assay type: biochemical; conditions: C1: 1 nM and 1 μM; 30 min reaction
# T1 construct: Eurofins (contract assay service)
# Procedure: To evaluate the direct influence of cl on the different isoforms of NOS, an enzyme activity assay was conducted by Eurofins. C1 was mixed with the enzyme buffer, which included co-factors and substrates and by adding the enzyme the reaction was initiated. After 30 min the reaction was stopped, and NO concentration was measured. The results are normalised to positive control performed without any additional compounds and are presented as percentage in inhibition. […] To test the compounds effect on iNOS a concentration range from 1 μM up to 5 μM were applied (1, 10, 100 μM, 1, 10, 100 nM, 1, and 5 μM), and for testing eNOS and nNOS 1 nM and 1 μM were applied.
# [1] = test system: primary cultured neonatal microglia; assay: Propidium iodide based proliferation and cell death assay in microglia; conditions: 2.5 μM C1, 48 hours, unstimulated
# Procedure: Primary cultured neonatal microglia. For preparation of cultured neonatal microglia, P0-P3 mice were used. 10 brains were extracted, meninges and cerebellum were removed and put on ice with Hank's balanced salt solution (HBSS). The dissected brains were washed 3 times before adding 400 μL trypsin (0.1 mg/L) and DNAse (5 μg/L) in phosphate buffered saline (PBS). After 2 min of incubation with this solution, the reaction was blocked by adding plain medium. After removal of the medium, 1 mg DNAse was added and the cells were mechanically dissociated, with a Pasteur pipette followed by a glass pipette. The cells were centrifuged for 10 min at 129 g at 4° C. The supernatant was discarded. The pellet was resuspended in plain medium and plated (2.5 brains/flask) in Poly-L-Lysine coated flasks. The cells were washed after 2 days with PBS and incubated for another 7 days in plain medium. […]
# Propidium iodide based proliferation and cell death assay. […] The intensity of the propidium iodide signal of the dead cells was measured using a microplate reader. Afterwards, all cells were killed with a 10 min incubation of 10% DMSO and the propidium iodide signal of all cells was measured. […] The percentage of dead cells was calculated by dividing the dead-cell-signal by the all-cell-signal. Proliferation was calculated as a relative value to the plain medium control.
# nNOS = assay: NOS enzyme activity assay (Eurofins), nNOS; assay type: biochemical; conditions: C1: 1 nM and 1 μM; 30 min reaction
# Procedure: In mammalians NO is produced by the three isoforms of NOS: iNOS, eNOS, and nNOS. To evaluate the direct influence of cl on the different isoforms of NOS, an enzyme activity assay was conducted by Eurofins. C1 was mixed with the enzyme buffer, which included co-factors and substrates and by adding the enzyme the reaction was initiated. After 30 min the reaction was stopped, and NO concentration was measured. The results are normalised to positive control performed without any additional compounds and are presented as percentage in inhibition. […] To test the compounds effect on iNOS a concentration range from […] 5 μM were applied ([…], 1, 10, 100 nM, 1, and 5 μM), and for testing eNOS and nNOS 1 nM and 1 μM were applied.
# [2] = test system: primary cultured neonatal microglia; assay: AlamarBlue assay (metabolic activity / cell viability) in microglia; assay type: cell-based, mouse
# Procedure: Primary cultured neonatal microglia. For preparation of cultured neonatal microglia, P0-P3 mice were used. 10 brains were extracted, meninges and cerebellum were removed and put on ice with Hank's balanced salt solution (HBSS). The dissected brains were washed 3 times before adding 400 μL trypsin (0.1 mg/L) and DNAse (5 μg/L) in phosphate buffered saline (PBS). After 2 min of incubation with this solution, the reaction was blocked by adding plain medium. After removal of the medium, 1 mg DNAse was added and the cells were mechanically dissociated, with a Pasteur pipette followed by a glass pipette. The cells were centrifuged for 10 min at 129 g at 4° C. The supernatant was discarded. The pellet was resuspended in plain medium and plated (2.5 brains/flask) in Poly-L-Lysine coated flasks. The cells were washed after 2 days with PBS and incubated for another 7 days in plain medium. Afterwards the medium was replaced by plain medium with 33% L929 conditioned medium. After 2 days, cells were harvested by shaking them for 30 min at 150 rpm. The supernatant was centrifuged for 10 min at 129 g at 4° C. The cells were plated into a 96 well plate (100 000 cells/well, 200 μL medium per well). This procedure could be repeated 2 times with a 2 day interval.
# Concentration-dependent validation and viability determination. Concentrated stock solutions of compounds identified from primary screening were rearranged onto anew 384-well plate, and 10 sequential 2-fold serial dilutions were created across multiple plates in DMSO. Starting from these diluted compound mother plates, the protocol was repeated exactly as for primary screening to span the concentration range between 5 μM and 20 nM. In order to obtain the 10 μM and 20 μM concentration points, 1000 n1 and 2000 n1 were transferred from the 500 μM pre-dilution plate, respectively. Each concentration was measured in duplicate. Normalized percent activities were plotted against the compound concentration to obtain the IC50 values. To obtain also information about the impact of compounds on cell viability, a second batch of plates was prepared as described above, but 5 μl of Alamar Blue solution was added after 48 hours instead of Griess reagent and incubation was continued for additional 4 hours at 37° C. Finally, the resorufin fluorescence was detected at an excitation wavelength of 530 nm and emission of 570 nm. Since no control samples were present on the assay plate for data normalization of cell viability, the raw data values were added on the second y-scale to the IC50 plots.
# AlamarBlue assay. […] The conversion of resazurin to resorufin was measured by absorbance (absorbance wavelength of 570 nm and a reference wavelength of 600 nm) after 3 hours.
# [3] = test system: primary cultured neonatal astrocytes; assay: AlamarBlue assay in astrocytes; assay type: cell-based; conditions: 2.5 μM C1, 48 hours, unstimulated
# Procedure: Primary cultured neonatal astrocytes. The preparation of primary cultured neonatal astrocytes followed the preparation of the primary cultured neonatal microglia, described above. After the third shake off, the remaining astrocytes were trypsinated, washed with PBS and seeded into a 96 well plate (10 000 cells/well, 200 μL medium per well).
# AlamarBlue assay. Cells were seeded according to the protocols described above, after compounds and stimuli were added, the cells were washed once with HBSS (37° C.) and 100 μl of a 1:10 AlamarBlue (Thermo Fisher Scientific) dilution in plain medium was added. The conversion of resazurin to resorufin was measured by absorbance (absorbance wavelength of 570 nm and a reference wavelength of 600 nm) after 3 hours.
# The inventors evaluated the metabolic activity, proliferation and cell death of primary cultured neonatal microglia, primary cultured neonatal astrocytes and the oligodendrocyte cell line OLN-93 under physiological conditions. All cells were treated with 2.5 μM C1 in DMSO or the corresponding DMSO concentration (125×10-5 v/v) for 48 hours without any additional stimulation followed by either an AlamarBlue assay to measure the metabolic activity, or an propidium iodide based proliferation and cell death assay. The data of the AlamarBlue assay and proliferation assay were normalised to the plain medium control. […]
structure (smiles),measurement,setting,value
COc1ccc(NC(=O)C(NC(=O)C2CCCN2C(=O)OCc2ccccc2)c2ccc(OC)cc2)cc1 (centres unmarked) [C1],enzymatic activity of eNOS,eNOS,does not interfere
same,percentage of dead cells in microglia,[1],8.49%
same,enzymatic activity of nNOS,nNOS,does not interfere
same,cell viability,"[2]; 2 nM to 20 μM, 1 μg/ml LPS 48 h",no effects on cell viability
same,metabolic activity,"[2]; 20 μM C1, 1 μg/mL LPS 48 h",84%±3.99
same,metabolic activity in unstimulated microglia,"[2]; C1 alone 0.025, 0.25, 2.5 μM, 48 hours",did not show any significant difference; also recorded: nor did it interfere with the metabolic activity
same,metabolic activity (AlamarBlue),"[2]; HTS setup, LPS stimulated",remained stable
same,metabolic activity of astrocytes,[3],no influence; also recorded: not affected
